What was measured:
[1] = human plasma pharmacokinetics of [14C]carboplatin; type: in vivo
Experimental: Two of the bladder cancer patients received two doses of [^14C]carboplatin, including the initial diagnostic microdose and a second microdose at the time of full therapeutic dose. This allowed us to compare the pharmacokinetics of carboplatin in plasma after both microdosing and therapeutic dosing (FIG. 11A). […] Therefore, microdosing and therapeutic dosing yield similar carboplatin pharmacokinetics in human patients.
The pharmacokinetics of carboplatin administered as a microdose was assessed in four patients (two with bladder cancer and two with NSLC) for the purpose of comparing interpatient variability and establishing the optimum time point for tumor biopsy sample acquisition.

[2] = sterile solution in water
Experimental: Radiolabeled carboplatin containing C^14 carbon atoms in the cyclobutane dicarboxylic acid group was formulated for human use as a sterile, pyrogen free solution at 5 mg/mL in water.

H460 = assay: carboplatin-DNA monoadducts by AMS; type: cell-based, human
Experimental: NSCLC cell lines were cultured to >90% confluence, dosed with [^14C]carboplatin, and subjected to DNA isolation and AMS analysis. 60 mm dishes were seeded at a density of 1×10^6 cells/dish and allowed to attach overnight in a 37° C. humidified atmosphere containing 5% CO2. At hour 0, cells were dosed with 1 μM (relevant microdose concentration) or 100 μM carboplatin (therapeutically relevant concentration), each comprising 0.3 μM [^14C]carboplatin (50,000 dpm/ml). Cells were incubated with [^14C]carboplatin for 4 h before washing and cultured with carboplatin-free medium to mimic the in vivo carboplatin half-life (1.3-6 hours) in patients. DNA was harvested from the cell lines at hours 0, 2, 4, 8 and 24 hours after initial dosing. Ten micrograms of DNA per sample was converted to graphite and measured by AMS for ^14C/total C quantification. Triplicate sets of AMS experiments were performed for each cell line and time point. The 14C/total C ratio was converted to 14C atoms per DNA base-pair according to the algorithm described herein to provide values of carboplatin-DNA monoadducts per 10^8 nucleotides. The data was plotted as carboplatin-DNA monoadducts per 10^8 nucleotide (nt) vs time (FIGS. 8A and 8B). There was a time-dependent increase in the carboplatin-DNA monoadduct concentration during the first 4 hours of incubation with therapeutic or microdosing carboplatin (FIGS. 8A and 8B). After the cells were washed and incubated with carboplatin-free media, the monoadduct levels decreased over a period of several hours. […] Carboplatin-DNA monoadduct levels in the microdosing group had essentially the same kinetics as the therapeutic group, but with 100-fold lower adduct levels at each time point (FIGS. 8A and 8B).

SMILES: N.N.O=C([O-])C1(C(=O)[O-])CCC1.[Pt+2] [carboplatin]
- plasma half-life ([1]; microdose, four patients): a few hours
- time to essential clearance from the blood ([1]; microdose, four patients): ≤ 24 h
- difference in plasma elimination kinetics between therapeutic and microdoses ([1]; two bladder cancer patients, 24 h): less than 2 fold
- loss of radiopurity per year ([2]; storage at −20° C.): < 2%
- stability to freeze/thaw ([2]; upon freezing): no observed precipitation
- Adduct level-4 hr-microdose (H460; 1 μM carboplatin): 6.8 ± 0.2 /10^8 nt
- AUC of adduct-microdose (H460; 1 μM carboplatin 4 h, up to 24 hours): 85.6 ± 8.4 hr-adducts/10^8 nt
- Adduct level-24 hr Microdose (H460; 1 μM carboplatin 4 h then drug-free): 1.0 ± 0.4 /10^8 nt
- Adduct level-4 hr-therapeutic (H460; 100 μM carboplatin): 885 ± 36.3 /10^8 nt
- AUC of adduct-therapeutic (H460; 100 μM carboplatin 4 h, up to 24 hours): 9488 ± 902 hr-adducts/10^8 nt
- Adduct level-24 hr-therapeutic (H460; 100 μM carboplatin 4 h then drug-free): 177 ± 11.5 /10^8 nt

Source: patent US20200010910A1, “Cytotoxic Chemotherapy-Based Predictive Assays for Acute Myeloid Leukemia” (The Regents of The University of California, priority 2017, published 2020)
